Experimental data reported in ChEMBL document CHEMBL4406850, “Review about the multi-target profile of resveratrol and its implication in the SGK1 inhibition” (Eur J Med Chem, 2019).
Activity calls are given as the source filed them. No cut-off for these calls is given here.

Assays:
Huh-7 [1] = assay: Induction of apoptosis in human HuH7 cells assessed as increase in early apoptotic cells at 100 uM incubated for 48 hrs by annexin V and 7-AAD staining based assay; assay type: functional, cell-based
Huh-7 [2] = assay: Induction of apoptosis in human HuH7 cells transfected with ShSGK1 assessed as late apoptosis at 100 uM incubated for 48 hrs by annexin V and 7-AAD staining based assay; assay type: functional, cell-based
Huh-7 [3] = assay: Antiproliferative activity against human HuH7 cells transfected with ShSGK1 assessed as reduction in cell viability at 100 uM incubated for 48 hrs by trypan blue dye based assay; assay type: functional
[4] = target: T1, Serine/threonine-protein kinase Sgk1 (Homo sapiens) (UniProt O00141); assay: Inhibition of recombinant human N-terminal His-tagged SGK1 at 50 uM using (GRPRTSSFAEGKK) peptide as substrate incubated for 30 mins in presence of [32P] gamma ATP by scintillation counter method
T1 sequence (whole entry): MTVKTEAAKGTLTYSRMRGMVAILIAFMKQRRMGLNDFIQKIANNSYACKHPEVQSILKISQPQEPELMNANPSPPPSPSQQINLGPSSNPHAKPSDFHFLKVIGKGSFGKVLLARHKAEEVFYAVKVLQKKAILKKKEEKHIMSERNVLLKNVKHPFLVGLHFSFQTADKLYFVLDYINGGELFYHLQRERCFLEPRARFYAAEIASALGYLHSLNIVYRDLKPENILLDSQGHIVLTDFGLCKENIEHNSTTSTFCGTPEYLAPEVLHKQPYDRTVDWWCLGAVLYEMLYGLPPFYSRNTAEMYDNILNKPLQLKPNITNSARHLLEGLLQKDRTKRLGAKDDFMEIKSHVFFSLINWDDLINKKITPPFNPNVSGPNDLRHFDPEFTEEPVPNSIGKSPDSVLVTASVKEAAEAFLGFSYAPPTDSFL

[5] = target: T1, Serine/threonine-protein kinase Sgk1 (Homo sapiens); assay: Inhibition of SGK1 in human HUH7 cells at 100 uM using peptide as substrate incubated for 6 hrs by scintillation counter method; assay type: cell-based
Huh-7 [6] = assay: Induction of apoptosis in human HuH7 cells transfected with ShSGK1 assessed as early apoptosis at 100 uM incubated for 48 hrs by annexin V and 7-AAD staining based assay; assay type: functional, cell-based
[7] = target: T1, Serine/threonine-protein kinase Sgk1 (Homo sapiens); assay: Inhibition of insulin-induced SGK1 in human HUH7 cells at 100 uM using peptide as substrate incubated for 6 hrs by scintillation counter method; assay type: cell-based
[8] = target: T1, Serine/threonine-protein kinase Sgk1 (Homo sapiens); assay: Inhibition of SGK1 in human HuH7 cells assessed as reduction in insulin-induced MDM2 phosphorylation on Ser166 at 100 uM incubated for 6 hrs by Western blot analysis; assay type: cell-based
Huh-7 [9] = assay: Induction of apoptosis in human HuH7 cells overexpressing EGFP at 100 uM incubated for 48 hrs by annexin V and 7-AAD staining based assay; assay type: functional, cell-based
Huh-7 [10] = assay: Antiproliferative activity against human HuH7 cells overexpressing EGFP assessed as reduction in cell viability at 100 uM incubated for 48 hrs by trypan blue dye based assay; assay type: functional
Huh-7 [11] = assay: Induction of apoptosis in human HuH7 cells assessed as increase in necrotic cells at 100 uM incubated for 48 hrs by annexin V and 7-AAD staining based assay; assay type: functional, cell-based
Huh-7 [12] = assay: Induction of apoptosis in human HuH7 cells assessed as increase in late apoptotic cells at 100 uM incubated for 48 hrs by annexin V and 7-AAD staining based assay; assay type: functional, cell-based
Huh-7 [13] = assay: Antiproliferative activity against human HuH7 cells overexpressing SGK1 assessed as reduction in cell viability at 100 uM incubated for 48 hrs by trypan blue dye based assay; assay type: functional
Huh-7 [14] = assay: Antiproliferative activity against human HuH7 cells assessed as reduction in cell viability at 100 uM incubated for 48 hrs by trypan blue dye based assay; assay type: functional
Huh-7 [15] = assay: Induction of apoptosis in human HuH7 cells overexpressing SGK1 at 100 uM incubated for 48 hrs by annexin V and 7-AAD staining based assay; assay type: functional, cell-based
[16] = target: T1, Serine/threonine-protein kinase Sgk1 (Homo sapiens); assay: Inhibition of recombinant human N-terminal His-tagged SGK1 using (GRPRTSSFAEGKK) peptide as substrate incubated for 30 mins in presence of [32P] gamma ATP by scintillation counter method

inhibition [4]: 50%
inhibition [5]: inactive
inhibition [7]: Active
inhibition [8]: Active
inhibition [16]: Dose-dependent effect
Structure (SMILES): Oc1ccc(/C=C/c2cc(O)cc(O)c2)cc1
Activity (Huh-7 [1]): Active
Activity (Huh-7 [2]): Active
Activity (Huh-7 [3]): Active
Activity (Huh-7 [6]): Active
Activity (Huh-7 [9]): Active
Activity (Huh-7 [10]): Active
Activity (Huh-7 [11]): Active
Activity (Huh-7 [12]): Active
Activity (Huh-7 [13]): inactive
Activity (Huh-7 [14]): Active
Activity (Huh-7 [15]): inactive
